Results taken from PubChem BioAssay (NCI).
“And” between values parts separate entries of the source, which are not always exact repeats. Identical values can stand only once.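 Method: 48-hour compound exposure of cells in 96-well plates, five concentrations, linear interpolation of endpoints. At the GI50, growth is halved. TGI is the concentration that stops growth completely.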

Legend:
Experiment in all cases: NCI-60 cell line screen, 48 h
CAKI-1 renal = tested on: CAKI-1 renal
HL-60(TB) leukemia = tested on: HL-60(TB) leukemia
HOP-62 NSCLC = tested on: HOP-62 NSCLC
KM12 colon = tested on: KM12 colon
MALME-3M melanoma = tested on: MALME-3M melanoma
NCI/ADR-RES ovarian = tested on: NCI/ADR-RES ovarian
SK-MEL-2 melanoma = tested on: SK-MEL-2 melanoma
SK-OV-3 ovarian = tested on: SK-OV-3 ovarian
SR leukemia = tested on: SR leukemia
UACC-257 melanoma = tested on: UACC-257 melanoma

| Compound | GI50 (CAKI-1 renal) | TGI (CAKI-1 renal) | TGI (HL-60(TB) leukemia) | GI50 (HOP-62 NSCLC) | TGI (HOP-62 NSCLC) | GI50 (KM12 colon) | TGI (KM12 colon) | GI50 (MALME-3M melanoma) | TGI (MALME-3M melanoma) | GI50 (NCI/ADR-RES ovarian) | TGI (NCI/ADR-RES ovarian) | GI50 (SK-MEL-2 melanoma) | TGI (SK-MEL-2 melanoma) | GI50 (SK-OV-3 ovarian) | TGI (SK-OV-3 ovarian) | TGI (SR leukemia) | GI50 (UACC-257 melanoma) | TGI (UACC-257 melanoma) | GI50 (HL-60(TB) leukemia) | GI50 (SR leukemia) |
| --- | --- | --- | --- | --- | --- | --- | --- | --- | --- | --- | --- | --- | --- | --- | --- | --- | --- | --- | --- | --- |
| CN(C)CCOC(c1ccccc1)c1ccccc1 | 38.2 µM | 52.6 µM and > 100 µM | > 100 µM | 36 µM | 50.9 µM and > 100 µM | 32.8 µM | 68.1 µM and > 100 µM | 25.2 µM | 46 µM and > 100 µM | 33.1 µM | 48.9 µM and > 100 µM | 35.5 µM | 51.6 µM and > 100 µM | 40.6 µM | 54.8 µM | > 100 µM | 14.2 µM | 19.8 µM and > 100 µM | – | – |
| CCc1ccc2c(c1)N(CCO)C1=C(C(=O)OC1)C2c1cccc(Cl)c1 (stereo unspecified) | 3.02 µM | 35.1 µM | 8.82 µM | 0.774 µM | 15.8 µM | 0.433 µM | 12.6 µM | 2.82 µM | 27.4 µM | 0.337 µM | 5.05 µM | 0.371 µM | 16.2 µM | 0.663 µM | 10.7 µM | > 100 µM | 0.772 µM | 23.6 µM | 0.482 µM | 0.445 µM |
| CCc1cc2c(cc1N1CCC(N3CCOCC3)CC1)C(C)(C)c1[nH]c3cc(C#N)ccc3c1C2=O | 1.26 µM and 1.28 µM and 1.13 µM | 12.4 µM and 4.57 µM and 3.87 µM | > 100 µM | 0.849 µM and 1.4 µM and 1.43 µM | 2.61 µM and 3.03 µM and 3.42 µM | 0.336 µM and 0.345 µM and 0.347 µM | 5.36 µM and 3.41 µM and > 10 µM | 1.41 µM and 1.4 µM and 2.3 µM | 5.62 µM and 5.27 µM and > 10 µM | 1.01 µM and 1.39 µM and 1.59 µM | 3.81 µM and 6.34 µM and 6.47 µM | 2.62 µM and 2.86 µM and 5.46 µM | 9.13 µM and 9.77 µM and > 10 µM | 1.64 µM and 1.87 µM and 2.84 µM | 3.4 µM and 3.72 µM and 8.64 µM | – | 2.3 µM and 3.2 µM | 21.1 µM and 25.9 µM and > 10 µM | 1.7 µM and 1.02 µM and 0.443 µM | < 0.0149 µM and 0.0165 µM and 0.0525 µM |
| CCN(CC)CCNc1cc(-c2cccc(OC(F)(F)F)c2)nc2ccc(N3CCCC3)cc12 | 1.58 µM and 1.41 µM and 3.08 µM | 3.29 µM and 2.76 µM and 11.5 µM | 3.65 µM and 3.01 µM and 4.12 µM | 1.52 µM and 1.75 µM and 1.88 µM | 2.96 µM and 3.24 µM and 4 µM | 1.71 µM and 1.7 µM and 1.85 µM | 3.51 µM and 3.39 µM and 3.77 µM | 1.72 µM and 2.01 µM and 1.69 µM | 3.34 µM and 3.76 µM and 3.17 µM | 1.65 µM and 1.72 µM and 2.18 µM | 3.19 µM and 3.3 µM and 4.53 µM | 1.61 µM and 1.87 µM and 1.9 µM | 3.3 µM and 3.49 µM and 3.61 µM | 1.69 µM and 1.88 µM and 3.01 µM | 3.63 µM and 3.66 µM and 9.59 µM | 2.12 µM and 2.26 µM | 1.81 µM and 1.76 µM | 3.51 µM and 3.32 µM and 3.6 µM | 1.66 µM and 0.714 µM and 2 µM | 0.418 µM and 0.462 µM |
| CC1(C)CCC(C)(C)c2c1ccc(O)c2Cc1c(O)ccc2c1C(C)(C)CCC2(C)C | – | 4.2 µM | 5.46 µM | – | 4.1 µM | – | 3.91 µM | – | 6.6 µM | – | 4.43 µM | – | 3.19 µM | – | 4.84 µM | 6.8 µM | – | 3.45 µM | – | – |
| COc1cc(-c2nn(-c3cccc(NC(=O)c4ccc(N5CCOCC5)c(C(F)(F)F)c4)c3)cc2-c2ccncc2)ccc1Cl | 0.293 µM | 3.19 µM | – | 0.524 µM | > 58.6 µM | 0.213 µM | 8.78 µM | 0.0769 µM | 1.54 µM | 0.203 µM | > 100 µM | 0.21 µM | 2.46 µM | 0.345 µM | 5.34 µM | > 100 µM | 0.496 µM | 6.86 µM | 0.233 µM | 0.0369 µM |
| COc1ccc2c(c1OC)OCC(CN(C)C)C2=O (stereo unspecified) | – | 11.3 µM | 7.14 µM | – | > 88.7 µM | – | 33.9 µM | – | 34.8 µM | – | 72.1 µM | – | 30.5 µM | – | > 57.3 µM | 10.5 µM | – | 30.8 µM | – | – |
